# Experimental data taken from a melting point compilation (Tetko et al.; mined from patent text by program, amines drawn as free bases though some values may be those of a salt).
row,Structure (SMILES),melting point
1,CC1(Br)CN(C2SCN(c3cccc(OC(F)(F)F)c3)C2=O)C1=O (stereo not drawn),111 to 113 °C
2,Cn1c(=O)[nH]c(=O)c2c1ncn2CC#N,285 to 287 °C
3,CCOC(=O)c1cn(Cc2ccccc2)nc1NC(=O)NCc1ccccc1,82 to 83 °C
4,CC(=O)NNc1nc(C(F)(F)F)nc(-c2ccc(C)cc2)c1-c1ccccc1,147 to 152 °C
5,Cc1c(Cl)ccc([N+](=O)[O-])c1C#N,97 to 98 °C
6,CC(C)(C)OC(=O)ON=C(C#N)c1cccc2ccccc12,90 to 92 °C
7,CC(C)C(=O)NC1=NN(c2cccc(C(F)(F)F)c2)CC1,167 to 168 °C
8,CC(C)(CCCCOc1ccc(NC(=O)CCCn2ccnc2)cc1)C(=O)O,150 °C
9,COc1ccc(/C=C(\C#N)Cc2ccccc2)cc1OC1CCCC1,111 to 112 °C
10,O=P(O)(O)C(O)(Cc1c(Cl)cccc1Cl)P(=O)(O)O,226 to 228 °C
11,O=C1OC(COc2ccc(CO)cc2)CN1c1ccc(Cl)cc1 (stereo not drawn),149 to 150 °C
12,OC1CSC(Oc2cncc(-c3ncccn3)c2)C(O)C1O (stereo not drawn),201 °C
13,COc1cc(NC(=O)C(C#N)=CNc2ccc(Br)c(OC)c2)c(Cl)cc1Cl,> 250 °C
14,CCOC(=O)c1c(SCc2ccc(OC)cc2)nc2c(F)c(F)c(F)cc2c1O,174 to 176 °C
15,CCN1CCC(O)(c2cccc(Cl)c2F)C1 (stereo not drawn),71 to 74 °C
16,COc1cc(C(C)C)c2c(c1)S(=O)(=O)N(COc1cc(C)oc(=O)c1Cl)C2=O,182 to 184 °C
17,Fc1ccccc1-c1c(OCc2nc3n(n2)CCCC3)nn2c(-c3ccccc3F)nncc12,150 to 152 °C
18,CC(CNc1nc(Cl)ncc1Cl)NS(C)(=O)=O (stereo not drawn),160 °C
19,CN=C1SC2Cc3ccc(S(C)(=O)=O)cc3C2(O)N1C (stereo not drawn),158 °C
20,COc1ccc2c3c(c(=O)oc2c1)CN(Cc1ccccn1)CC3,140 to 142 °C
21,COC(=O)NC1=NC(c2cccc(O)c2)CN1 (stereo not drawn),180 to 183 °C
22,CCCCCCCCCCCC(=O)NCCO,80 to 84 °C
23,O=S(=O)(Nc1cccc(CCOCc2csc(-c3ccc(F)c(Cl)c3)n2)c1)C(F)(F)F,141 to 143 °C
24,Clc1ccc(N2CCN3CCC2CC3)nn1,127 to 128 °C
25,CC(=O)CCCCCCCCCCCCC(C)=O,80 °C

row,Structure (SMILES),melting point
1,COc1cc(C(=O)C(F)(F)F)ccc1OCCCN1CCC(c2noc3cc(F)ccc23)CC1,78 to 80 °C
2,C=CC(=O)OCCCCCCC(CCCCCCOC(=O)C=C)C(=O)OCCCCCCCCCCCCCCCCOc1ccc(-c2cccc(F)c2F)cc1,33.8 to 35.5 °C
3,CCCc1c(O)c(C(C)=O)cc(I)c1OCC(O)COc1ccc2c(=O)cc(C(=O)O)oc2c1CCC (stereo not drawn),173 to 176 °C
4,Cc1c(S(=O)(=O)Nc2ccc(-c3nc(CCl)cs3)cc2S(C)(=O)=O)sc2ccc(F)cc12,190 to 191 °C
5,FC(F)(F)c1cc(N2CCN(Cc3ccc4ccccc4n3)CC2)ccc1Cl,61 to 64 °C
6,OC1CCN(c2nc(-c3ccccc3)nc3ccccc23)CC1,165 to 167 °C
7,CCCCCCCCCCCCCCC(O)CO (stereo not drawn),76 to 77 °C
8,CCOC(=O)C1(c2ccccc2)CCN(CCO)CC1,91.5 to 93 °C
9,C#CC[C@@H](N)c1nc2cccnc2c(=O)n1Nc1ccccc1,206 to 208 °C
10,COc1cccc(OC)c1C(=O)Nc1cc(C(C)(C)C)ns1,266 to 267 °C
11,CCOC(=O)c1c(C(F)(F)F)nc(C(F)F)c(C(=O)OC)c1OCC,59 to 61 °C
12,CC1CCCC(NC(CCc2ccccc2)C(=O)O)C(=O)N1CC(=O)O (stereo not drawn),215 to 217 °C
13,COc1ccc(N2CCN(c3c(C)c(C)c4c(c3C)C(O)(c3ccc(OC(F)(F)F)cc3)C(C)(C)O4)CC2)cc1 (stereo not drawn),175 to 176 °C
14,O=C(NS(=O)(=O)c1cc(C(F)(F)F)ccc1Cl)c1cn2cc(Br)cnc2n1,> 250 °C
15,O=C(O)C1=CSC2C(=CC3=CN4CCCCCC4N3)C(=O)N12 (stereo not drawn),> 250 °C
16,COC(=O)N1CCC(c2nn(-c3ccc(F)cc3)c3ccccc23)CC1,95 to 97 °C
17,OC(COc1ccc(-c2ccccc2I)cc1)CN1CCCC1 (stereo not drawn),72 to 76 °C
18,CC1=C(C(=O)OCCOc2ccccc2)C(c2ccccc2OC(F)F)c2c(ccnc2OC(C)C)N1 (stereo not drawn),122 to 124 °C
19,O=C(CNC(=O)c1ccc(F)cc1)c1cccnc1,164 to 166 °C
20,COc1nc(C(F)(F)C(F)(F)F)cc(=O)n1-c1cc(C(=O)OC(C)C)c(Cl)cc1F,82 to 84 °C
21,CN1CCN(c2c(CO)cnc3c(NC(=O)c4c(Cl)cccc4Cl)cccc23)C1=S,253 to 254 °C
22,N#Cc1cc2sccc2nc1Cl,222 to 224 °C
23,COC(=O)c1ccc(Nc2ccn(-c3ccccc3)n2)cc1,160 to 161 °C
24,CSc1ccc(C(O)CBr)cc1Cl (stereo not drawn),86 to 87 °C
25,CCOC(=O)C(=O)N(CCN=[N+]=[N-])N=Cc1ccccc1,59 to 61 °C

row,Structure (SMILES),melting point
1,O=C1c2ccccc2C(=O)c2sc(-c3ccsc3)nc21,258 °C
2,O=C(NCCc1ccccc1)C1CCc2ccccc2C1 (stereo not drawn),86 to 87 °C
3,CC(C)c1ccc(S(=O)(=O)n2c(C(O)c3cccc(C(=O)O)c3)cc3cc(Cl)ccc32)cc1 (stereo not drawn),97 °C
4,CCCCCCC1=NOC(=O)/C1=C\Nc1ccc(CCCCCC)cc1,88 to 90 °C
5,CC(=O)N[C@@H](Cc1ccc2ccccc2c1)C(=O)OCc1cc(C)cc(C)c1,96 to 97 °C
6,O=C(Nc1ccc(-n2nc(C(F)(F)F)cc2C(F)(F)F)cc1)Nc1ccc([N+](=O)[O-])cc1Cl,229 to 230 °C
7,OCC1CC(n2c(SCc3ccccc3)nc3cc(Cl)c(Cl)cc32)C(O)C1O (stereo not drawn),160 to 162 °C
8,CN1C(N2CCCCC2)=C2N=c3cc(Cl)ccc3=C2Oc2ccccc21,244 to 245 °C
9,CC(C)(C)OC(=O)N1C[C@H](OS(C)(=O)=O)C[C@H]1CO,95 to 96 °C
10,CCOC(=O)c1cc(=O)cc(-c2ccc(OC)cc2)o1,131 to 133 °C
11,COC(=O)/C=C/c1ccc2nn(C)cc2c1C(=O)OC,232 to 234 °C
12,CC(C)(C)C(NC(=O)c1cc(Cl)cc(Cl)c1)Nc1c(Nc2cccnc2)c(=O)c1=O (stereo not drawn),260 to 262 °C
13,CCOC(=O)C1=Cc2cccc(NS(=O)(=O)N(C)C)c2OCC1,93 to 96 °C
14,COc1ccc(S(=O)(=O)N2C(=O)C(N)(c3ccccc3Cl)c3cc(Cl)ccc32)c(N)c1 (stereo not drawn),160 to 166 °C
15,C=C(C(=O)OCC)N1C(C)(C)CC(OC(=O)C=CC(=O)OC2CC(C)(C)N(C(=C)C(=O)OCC)C(C)(C)C2)CC1(C)C,185 to 186 °C
16,CC(C)CNC(=O)c1ccc(C(=O)N2CCC[C@@H]3CCCC[C@H]32)cc1N (relative stereo),153 to 155 °C
17,CCCCNC(=O)NS(=O)(=O)c1c(C(=O)OCC)cnn1C,117 to 119 °C
18,CCSc1ccc(/C=C(\NC(=O)c2ccc(OCC(C)C)cc2)C(=O)NCCO)cc1,153 to 155 °C
19,Cc1nc[nH]c1CSCCNc1cc[nH]c(=O)n1,249 to 251 °C
20,CC(CC(F)(F)CC(Cl)(CO)CO)C1CCC2C3CC=C4CC(O)CCC4(C)C3CCC12C (stereo not drawn),152 to 153 °C
21,O=c1[nH]c2c(I)c(Cl)c(Cl)c(I)c2[nH]c1=O,353 to 354 °C
22,CCN(C(C)=O)c1ccc(O)cc1,183 to 185 °C
23,O=[N+]([O-])c1cc(Cl)cc(CCc2ccccn2)c1O,97 to 100 °C
